Experimental data published in patent US20260160663A1, “OBLIQUE LINE SCANNER SYSTEMS AND METHODS FOR HIGH THROUGHPUT SINGLE MOLECULE TRACKING IN LIVING CELLS” (EIKON THERAPEUTICS, INC., priority 2022, published 2026).

Tested on: Halo-PCNA U2OS cells
Assay: Cell cycle block, phases assigned by PCNA-based machine learning model
Settings: 2 mM Thymidine (S-phase block) or RO-3306 (G2-M block) per FIG. 20B legend
Description: Time-lapse microscopy was conducted on Halo-PCNA labeled with 50 nM JFX650, to achieve near-saturating labeling, for 12 hours at 12 frames per hour (FIG. 21A). A machine learning model was then trained using both manually assigned cell stages and time-based progression resulting in both a G1, early S, mid S, late S, G2 and mitosis classifier as well as a regression prediction across the continuum of the cell cycle (FIG. 21B). The predicted cell cycle classification performed well as compared to manual annotation (FIG. 21C). Clear progression of individual cells through the cell cycle was observed when regression prediction was plotted across the time series (FIG. 21D). […] When cells in each cell phase were analyzed separately, it became apparent that the slow-moving population of PCNA was exclusively found in cell predicted to be in S-phase and that there was a marked decrease in the fast-moving population (FIG. 20E). Mean diffusion coefficient of PCNA was then measured for 4,081 individual cells to characterize heterogeneity across the cell population, which is described in large part by cell cycle (FIG. 20F).
Cell cycle as provided above can be automatically determined using an image (e.g., an image of JF549-labeled PCNA). […]

| Compound | fraction of cells assigned to the respective cell phase |
| --- | --- |
| O=C1NC(=NCc2cccs2)S/C1=C\c1ccc2ncccc2c1 [RO-3306] | expected enrichment |
| Cc1cn([C@H]2C[C@H](O)[C@@H](CO)O2)c(=O)[nH]c1=O [thymidine] | expected enrichment |
